Structures are written as SMILES. pIC50: −log10 of the molar value.

Assay [1] has as its target CDK6/Cyclin D (Homo sapiens) (UniProt P24385+P30281+Q00534+P30279). Description: Selectivity interaction (Upstate Kinase Profiler service (Millipore)) EUB0000056c CDK6. Type of assay: protein-complex assay. Particulars: at 1 µM.
Assay [2] deals with Death-associated protein kinase 1 (Homo sapiens, UniProt P53355). The assay can be described thus: Selectivity interaction (Upstate Kinase Profiler service (Millipore)) EUB0000056c DAPK1. As to conditions: at 1 µM.
The target in assay [3] is Macrophage colony-stimulating factor 1 receptor (Homo sapiens) (UniProt P07333). Description: Selectivity interaction (ProQinase) EUB0000171b CSF1R.
The target of assay [4] is Serine/threonine-protein kinase 25 (Homo sapiens) (UniProt O00506). The assay can be described thus: Selectivity interaction (Ambit KINOMEscan and KiNATiv profiling in Jurkat cells) EUB0000090b STK25. In kind it is cell-based. As to conditions: at 1 µM.
For assay [5], the target named is Histone acetyltransferase p300 (Homo sapiens) (UniProt Q09472). Description: Selectivity interaction (Bromodomain panel (DSF asssay)) EUB0000270b EP300.
Assay [6] deals with T1, Uncharacterized serine/threonine-protein kinase SBK3 (Homo sapiens) (UniProt P0C264).
T1 sequence (whole entry): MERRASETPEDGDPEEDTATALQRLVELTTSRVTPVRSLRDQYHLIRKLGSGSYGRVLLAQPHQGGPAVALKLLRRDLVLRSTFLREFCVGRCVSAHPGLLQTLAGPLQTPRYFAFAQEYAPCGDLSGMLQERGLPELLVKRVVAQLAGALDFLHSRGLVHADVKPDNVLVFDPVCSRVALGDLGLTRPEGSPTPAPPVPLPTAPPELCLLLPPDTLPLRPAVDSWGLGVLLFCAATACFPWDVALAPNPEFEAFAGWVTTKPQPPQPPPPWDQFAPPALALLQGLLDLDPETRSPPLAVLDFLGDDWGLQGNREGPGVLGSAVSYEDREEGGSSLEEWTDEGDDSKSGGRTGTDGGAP
Description: Selectivity interaction (KinomeScan (DiscoverX)) EUB0000666a SBK3. Particulars: at 10 µM.

In assay [7] the target is Wee1-like protein kinase 2 (Homo sapiens) (UniProt P0C1S8). The assay can be described thus: Selectivity interaction (KinomeScan (DiscoverX)) EUB0000666a WEE2. As to conditions: at 10 µM.
In assay [8] the target is Casein kinase I isoform epsilon (Homo sapiens, UniProt P49674). The assay can be described thus: Selectivity interaction (Kinase panel (Z-LYTE Assay)) EUB0001632a CSNK1E. As to conditions: at 10 µM.
For assay [9], the target named is Tyrosine-protein kinase Srms (Homo sapiens) (UniProt Q9H3Y6). Description: Selectivity interaction (Kinase panel (Z-LYTE Assay)) EUB0001632a SRMS. As to conditions: at 10 µM.
Assay [10] concerns the target T2, MAP kinase-activated protein kinase 5 (Homo sapiens) (UniProt Q8IW41).
T2 sequence (whole entry): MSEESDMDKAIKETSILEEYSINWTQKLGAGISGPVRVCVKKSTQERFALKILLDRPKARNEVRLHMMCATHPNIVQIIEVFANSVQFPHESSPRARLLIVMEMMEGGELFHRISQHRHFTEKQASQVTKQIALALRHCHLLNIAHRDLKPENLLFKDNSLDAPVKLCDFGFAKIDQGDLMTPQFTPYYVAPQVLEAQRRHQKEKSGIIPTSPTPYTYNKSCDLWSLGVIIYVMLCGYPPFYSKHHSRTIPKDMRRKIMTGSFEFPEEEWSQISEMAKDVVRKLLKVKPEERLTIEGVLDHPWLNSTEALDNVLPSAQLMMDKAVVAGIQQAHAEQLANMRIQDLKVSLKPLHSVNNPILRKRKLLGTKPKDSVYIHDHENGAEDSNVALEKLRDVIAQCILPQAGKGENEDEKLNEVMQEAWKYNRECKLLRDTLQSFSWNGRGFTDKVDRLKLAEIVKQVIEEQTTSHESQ
The assay can be described thus: Selectivity interaction (KinomeScan (DiscoverX)) EUB0000607a MAPKAPK5. Particulars: at 10 µM.

Assay [11] concerns the target Macrophage-stimulating protein receptor (Homo sapiens, UniProt Q04912). Description: Selectivity interaction (SelectScreen profiling (Invitrogen)) EUB0000607a MST1R. As to conditions: at 2 µM.
Assay [12] deals with T3, Cyclin-dependent kinase 11A (Homo sapiens) (UniProt Q9UQ88).
T3 sequence (whole entry): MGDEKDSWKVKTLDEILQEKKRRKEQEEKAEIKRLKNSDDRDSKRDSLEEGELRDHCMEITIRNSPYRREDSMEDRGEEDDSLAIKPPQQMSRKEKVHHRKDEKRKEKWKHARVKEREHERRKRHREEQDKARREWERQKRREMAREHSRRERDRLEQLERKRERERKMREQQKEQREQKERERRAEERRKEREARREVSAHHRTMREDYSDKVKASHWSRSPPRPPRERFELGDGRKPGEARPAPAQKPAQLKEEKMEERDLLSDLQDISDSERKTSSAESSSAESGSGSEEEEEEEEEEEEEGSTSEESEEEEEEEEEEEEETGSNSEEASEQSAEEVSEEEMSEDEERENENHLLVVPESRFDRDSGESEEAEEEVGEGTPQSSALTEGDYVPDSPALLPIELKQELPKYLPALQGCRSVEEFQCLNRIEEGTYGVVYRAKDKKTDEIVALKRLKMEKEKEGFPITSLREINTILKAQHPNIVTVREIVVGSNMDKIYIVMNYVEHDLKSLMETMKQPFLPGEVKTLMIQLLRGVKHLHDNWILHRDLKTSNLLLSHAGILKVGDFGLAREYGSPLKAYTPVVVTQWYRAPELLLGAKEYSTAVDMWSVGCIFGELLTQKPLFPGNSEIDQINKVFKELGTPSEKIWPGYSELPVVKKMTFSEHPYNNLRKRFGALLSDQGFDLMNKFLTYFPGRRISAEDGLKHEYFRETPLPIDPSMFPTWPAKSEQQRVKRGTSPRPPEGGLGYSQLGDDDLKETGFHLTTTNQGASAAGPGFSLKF
The assay can be described thus: Selectivity interaction (ActivX KiNativ screen (kinase selectivity in THP-1 cell lysates)) EUB0000639a CDK11A. Type of assay: subcellular. As to conditions: lysate, at 0.04 µM.

The target in assay [13] is Tyrosine-protein kinase receptor UFO (Homo sapiens, UniProt P30530). The assay can be described thus: Selectivity interaction (Kinase panel (33PanQinase(R) Activity Assay)) EUB0000877a AXL.
For assay [14], the target named is T4, Casein kinase I isoform alpha-like (Homo sapiens) (UniProt Q8N752).
T4 sequence (whole entry): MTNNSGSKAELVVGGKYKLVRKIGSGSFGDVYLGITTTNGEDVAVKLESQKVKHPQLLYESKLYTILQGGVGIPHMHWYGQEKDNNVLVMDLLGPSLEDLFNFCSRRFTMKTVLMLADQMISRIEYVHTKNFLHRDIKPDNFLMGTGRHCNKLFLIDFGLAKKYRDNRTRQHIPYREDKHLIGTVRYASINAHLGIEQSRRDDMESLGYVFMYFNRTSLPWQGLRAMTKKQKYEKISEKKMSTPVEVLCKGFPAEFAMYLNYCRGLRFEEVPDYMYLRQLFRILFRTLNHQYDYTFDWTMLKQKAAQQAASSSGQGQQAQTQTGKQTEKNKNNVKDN
Particulars: at 10 µM.

In assay [15] the target is Phosphatidylinositol 4-phosphate 5-kinase type-1 gamma (Homo sapiens) (UniProt O60331). Description: Selectivity interaction (KinomeScan (DiscoverX)) EUB0000618a PIP5K1C. Particulars: at 10 µM.

Macrophage colony-stimulating factor 1 receptor (Homo sapiens), sequence (P07333 whole entry): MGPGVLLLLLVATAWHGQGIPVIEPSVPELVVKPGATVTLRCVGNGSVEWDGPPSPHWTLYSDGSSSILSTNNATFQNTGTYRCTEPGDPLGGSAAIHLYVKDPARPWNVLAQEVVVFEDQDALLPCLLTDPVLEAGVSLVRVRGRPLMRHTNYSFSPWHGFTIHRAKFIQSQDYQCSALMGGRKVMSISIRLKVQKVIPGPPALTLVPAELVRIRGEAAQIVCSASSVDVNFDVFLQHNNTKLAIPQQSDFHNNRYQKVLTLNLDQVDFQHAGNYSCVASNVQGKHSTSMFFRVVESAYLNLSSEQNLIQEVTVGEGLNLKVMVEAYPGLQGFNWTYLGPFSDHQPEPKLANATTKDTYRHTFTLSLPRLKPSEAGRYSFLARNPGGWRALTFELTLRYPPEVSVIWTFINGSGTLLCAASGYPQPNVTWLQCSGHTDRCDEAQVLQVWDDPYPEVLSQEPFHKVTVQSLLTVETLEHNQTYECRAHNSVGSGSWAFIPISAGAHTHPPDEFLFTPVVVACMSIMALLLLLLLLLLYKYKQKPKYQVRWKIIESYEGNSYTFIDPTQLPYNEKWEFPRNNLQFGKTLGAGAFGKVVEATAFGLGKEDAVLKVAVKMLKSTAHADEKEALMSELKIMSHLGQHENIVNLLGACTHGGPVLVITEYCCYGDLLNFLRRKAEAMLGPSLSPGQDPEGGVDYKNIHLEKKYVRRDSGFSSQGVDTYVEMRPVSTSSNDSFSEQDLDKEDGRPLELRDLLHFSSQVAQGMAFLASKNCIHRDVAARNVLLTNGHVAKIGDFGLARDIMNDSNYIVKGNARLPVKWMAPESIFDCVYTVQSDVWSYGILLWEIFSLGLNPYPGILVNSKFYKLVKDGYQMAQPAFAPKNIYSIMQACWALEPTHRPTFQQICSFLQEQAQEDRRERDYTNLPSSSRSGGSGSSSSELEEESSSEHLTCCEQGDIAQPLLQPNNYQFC
Casein kinase I isoform epsilon, sequence (P49674 whole entry, looked up, canonical isoform): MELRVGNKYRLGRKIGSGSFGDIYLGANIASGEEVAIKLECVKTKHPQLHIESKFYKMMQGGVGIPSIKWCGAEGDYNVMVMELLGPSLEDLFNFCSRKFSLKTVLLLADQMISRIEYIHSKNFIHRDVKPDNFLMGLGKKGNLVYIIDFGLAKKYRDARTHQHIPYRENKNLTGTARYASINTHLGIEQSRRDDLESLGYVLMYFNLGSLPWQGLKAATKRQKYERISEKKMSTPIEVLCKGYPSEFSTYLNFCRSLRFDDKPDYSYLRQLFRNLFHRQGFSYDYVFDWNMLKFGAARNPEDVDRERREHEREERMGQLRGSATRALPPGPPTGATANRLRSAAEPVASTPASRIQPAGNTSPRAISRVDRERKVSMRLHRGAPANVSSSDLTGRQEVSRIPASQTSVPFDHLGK
Wee1-like protein kinase 2 (Homo sapiens), sequence (P0C1S8 whole entry, looked up, canonical isoform): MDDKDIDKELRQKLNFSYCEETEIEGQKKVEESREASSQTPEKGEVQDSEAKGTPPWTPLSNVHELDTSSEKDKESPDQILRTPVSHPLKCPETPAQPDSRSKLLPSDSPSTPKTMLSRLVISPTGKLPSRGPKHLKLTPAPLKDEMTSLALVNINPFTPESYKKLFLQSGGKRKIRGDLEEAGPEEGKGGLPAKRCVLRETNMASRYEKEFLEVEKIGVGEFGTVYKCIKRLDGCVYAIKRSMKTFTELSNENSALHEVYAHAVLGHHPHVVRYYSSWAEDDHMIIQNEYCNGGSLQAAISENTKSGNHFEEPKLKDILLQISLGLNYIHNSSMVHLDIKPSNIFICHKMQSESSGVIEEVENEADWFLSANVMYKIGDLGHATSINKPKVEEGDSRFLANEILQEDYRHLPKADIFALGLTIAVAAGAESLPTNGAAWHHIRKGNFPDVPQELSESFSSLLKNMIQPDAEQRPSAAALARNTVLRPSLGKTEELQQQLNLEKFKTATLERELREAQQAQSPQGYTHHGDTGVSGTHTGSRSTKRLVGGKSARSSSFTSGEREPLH
Macrophage-stimulating protein receptor, sequence (Q04912 25-304 limits assumed): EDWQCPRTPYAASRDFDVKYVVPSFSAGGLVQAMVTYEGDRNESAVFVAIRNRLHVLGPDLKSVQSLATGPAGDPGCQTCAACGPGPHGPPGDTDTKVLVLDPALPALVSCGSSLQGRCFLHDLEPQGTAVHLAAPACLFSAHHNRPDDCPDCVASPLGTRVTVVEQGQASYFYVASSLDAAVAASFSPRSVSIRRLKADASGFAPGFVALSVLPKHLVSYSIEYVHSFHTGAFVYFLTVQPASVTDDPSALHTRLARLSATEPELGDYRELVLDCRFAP
Macrophage-stimulating protein receptor, sequence (Q04912 310-1400 limits assumed): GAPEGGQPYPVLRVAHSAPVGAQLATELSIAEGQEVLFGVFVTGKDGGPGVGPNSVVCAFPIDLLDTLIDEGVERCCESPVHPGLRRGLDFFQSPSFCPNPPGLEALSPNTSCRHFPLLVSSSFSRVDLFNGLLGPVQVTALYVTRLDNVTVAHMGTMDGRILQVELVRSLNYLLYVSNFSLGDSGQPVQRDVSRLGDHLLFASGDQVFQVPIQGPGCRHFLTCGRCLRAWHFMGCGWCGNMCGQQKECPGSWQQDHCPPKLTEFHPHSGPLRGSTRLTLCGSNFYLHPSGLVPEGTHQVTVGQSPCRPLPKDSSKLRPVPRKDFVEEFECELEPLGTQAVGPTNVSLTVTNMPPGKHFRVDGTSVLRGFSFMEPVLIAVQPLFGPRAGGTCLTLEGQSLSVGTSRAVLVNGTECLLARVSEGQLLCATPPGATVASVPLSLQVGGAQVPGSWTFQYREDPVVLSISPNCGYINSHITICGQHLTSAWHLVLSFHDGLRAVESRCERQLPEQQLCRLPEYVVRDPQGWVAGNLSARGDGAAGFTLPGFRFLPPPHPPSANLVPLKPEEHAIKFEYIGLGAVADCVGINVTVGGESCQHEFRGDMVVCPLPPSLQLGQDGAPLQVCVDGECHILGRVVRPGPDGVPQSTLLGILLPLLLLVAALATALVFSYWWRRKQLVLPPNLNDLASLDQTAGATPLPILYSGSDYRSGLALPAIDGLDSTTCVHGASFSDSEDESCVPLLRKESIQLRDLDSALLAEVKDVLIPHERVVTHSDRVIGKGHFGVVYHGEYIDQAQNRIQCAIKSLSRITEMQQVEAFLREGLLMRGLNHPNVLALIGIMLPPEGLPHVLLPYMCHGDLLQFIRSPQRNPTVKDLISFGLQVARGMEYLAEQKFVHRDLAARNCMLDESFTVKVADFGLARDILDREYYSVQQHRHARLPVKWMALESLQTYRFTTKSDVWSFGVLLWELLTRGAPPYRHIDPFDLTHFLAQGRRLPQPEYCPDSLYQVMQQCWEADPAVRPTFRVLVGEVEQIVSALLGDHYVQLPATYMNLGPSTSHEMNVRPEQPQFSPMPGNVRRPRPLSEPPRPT
Serine/threonine-protein kinase 25 (Homo sapiens), sequence (O00506 whole entry, looked up): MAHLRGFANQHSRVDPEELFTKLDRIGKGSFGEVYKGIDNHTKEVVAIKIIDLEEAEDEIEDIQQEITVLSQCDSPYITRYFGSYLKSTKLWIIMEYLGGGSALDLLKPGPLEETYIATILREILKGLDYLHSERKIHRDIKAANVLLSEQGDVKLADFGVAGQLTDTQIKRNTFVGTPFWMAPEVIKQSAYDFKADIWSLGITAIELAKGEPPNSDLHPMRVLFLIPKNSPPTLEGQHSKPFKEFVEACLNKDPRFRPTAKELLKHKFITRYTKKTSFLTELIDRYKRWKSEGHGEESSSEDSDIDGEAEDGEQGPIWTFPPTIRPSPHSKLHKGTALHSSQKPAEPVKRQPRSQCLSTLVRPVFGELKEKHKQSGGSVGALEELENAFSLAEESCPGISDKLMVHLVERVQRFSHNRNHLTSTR
CDK6/Cyclin D (Homo sapiens), sequence (P24385 whole entry, looked up): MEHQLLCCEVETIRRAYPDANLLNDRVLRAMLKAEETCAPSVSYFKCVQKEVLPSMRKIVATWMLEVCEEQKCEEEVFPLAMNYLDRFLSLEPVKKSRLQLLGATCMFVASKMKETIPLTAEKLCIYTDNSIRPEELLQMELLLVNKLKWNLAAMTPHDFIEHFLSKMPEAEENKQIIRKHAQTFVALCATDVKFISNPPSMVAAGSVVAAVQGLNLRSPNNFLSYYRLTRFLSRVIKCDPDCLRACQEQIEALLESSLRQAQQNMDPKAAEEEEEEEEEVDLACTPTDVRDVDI
CDK6/Cyclin D (Homo sapiens), sequence (P30279 whole entry, looked up): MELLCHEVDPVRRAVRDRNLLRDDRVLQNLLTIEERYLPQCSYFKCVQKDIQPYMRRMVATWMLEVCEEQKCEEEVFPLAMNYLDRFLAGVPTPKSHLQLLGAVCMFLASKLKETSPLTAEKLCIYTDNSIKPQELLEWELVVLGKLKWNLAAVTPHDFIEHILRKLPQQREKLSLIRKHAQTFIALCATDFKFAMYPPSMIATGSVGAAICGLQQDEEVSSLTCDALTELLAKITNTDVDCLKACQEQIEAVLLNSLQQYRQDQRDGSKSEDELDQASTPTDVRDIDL
CDK6/Cyclin D (Homo sapiens), sequence (P30281 whole entry, looked up): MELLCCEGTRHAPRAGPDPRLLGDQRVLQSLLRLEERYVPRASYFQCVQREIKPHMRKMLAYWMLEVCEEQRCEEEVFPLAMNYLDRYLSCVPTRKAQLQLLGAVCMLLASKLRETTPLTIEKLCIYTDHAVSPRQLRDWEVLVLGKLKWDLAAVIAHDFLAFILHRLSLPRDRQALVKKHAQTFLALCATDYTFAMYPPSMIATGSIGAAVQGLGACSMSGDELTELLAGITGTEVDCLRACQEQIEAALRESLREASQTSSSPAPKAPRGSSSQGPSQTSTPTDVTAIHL
CDK6/Cyclin D (Homo sapiens), sequence (Q00534 whole entry, looked up): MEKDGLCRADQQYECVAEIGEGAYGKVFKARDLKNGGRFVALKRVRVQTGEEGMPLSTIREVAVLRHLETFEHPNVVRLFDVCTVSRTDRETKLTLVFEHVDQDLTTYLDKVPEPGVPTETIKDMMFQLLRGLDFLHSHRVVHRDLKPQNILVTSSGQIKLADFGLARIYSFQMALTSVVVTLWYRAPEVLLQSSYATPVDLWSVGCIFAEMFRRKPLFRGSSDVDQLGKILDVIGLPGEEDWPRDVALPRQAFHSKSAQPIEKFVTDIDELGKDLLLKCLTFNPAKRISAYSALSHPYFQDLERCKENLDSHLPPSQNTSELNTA

In the case of `Cc1ccc(-c2ccc3c(ccc4sc5c(c43)NC[C@@H](C)NC5=O)n2)cn1`, the % of inhibition in assay [1] turned out to be 5%; in [2] it was 11%.

Regarding `C=CC(=O)Nc1cccc(C(=O)Nc2ccc(Nc3cc(-c4[nH]c(SC)nc4C)ccn3)cc2)c1`, the % of control amounted to 106% in assay [3] (at 1 µM) and 69% in [3] (at 5 µM).

On to `CN(C)C/C=C/C(=O)Nc1ccc(C(=O)N2CCCC(Nc3ncc(Cl)c(-c4c[nH]c5ccccc45)n3)C2)cc1` (stereo unspecified), for which the % of control in assay [4] amounted to 77%.

`Cc1cc(CN)cc(C)c1-c1ncn(C)c1-c1cncn1C` gave a dTM in [5] of -1.45 K.

With `O=C(NOC[C@H](O)CO)c1ccc(F)c(F)c1Nc1ccc(I)cc1F`, the % of control is 100% in assay [6] and 77% in assay [7].

As to `Cn1cc(-n2cnc3c(NCc4nc5cc(Cl)c(Cl)cc5[nH]4)nc(N4CCOCC4)nc32)cn1`, the % of control in assay [8] was 48.9%; in assay [9], -3.87%.

Turning to `CNC(=O)Nc1ccc(-c2nc(N3CC4CCC(C3)O4)c3cnn(C4CCC5(CC4)OCCO5)c3n2)cc1`, the % of control in assay [10] was 100%. Besides, in assay [11], the % of inhibition was -1%.

For the compound `CC[C@@H]1[C@H](F)C(=O)N[C@@H]1COc1nccc2cc(C(N)=O)c(OC)cc12` [ZIMLOVISERTIB], the % of inhibition in assay [12] came to 6.9%.

`CCC(=O)N1CC[C@H](Nc2ncnc3c2CN(c2cnc(OC)c(C(F)(F)F)c2)CC3)C1` [LENIOLISIB] showed a pIC50 in [13] below 5.00.

For the compound `COCC(=O)NC/C=C/c1ccc2ncnc(Nc3ccc(Oc4ccc(C)nc4)c(C)c3)c2c1` [CP-724714], the % of control in [14] was determined as 82%.

Regarding `O[C@H]1CC[C@H](Nc2ncc3nc(Nc4c(F)cc(F)cc4F)n([C@H]4CCOC4)c3n2)CC1`, the % of control in [15] was determined as 76%.

As usually defined, the pIC50 is −log10 of the IC50, conventionally taken in molar units. A lower pIC50 goes with a high IC50.
